IC50, ΔTm and Activity data for 15 molecules are collected here from ChEMBL document CHEMBL3351223, “Single Diastereomer of a Macrolactam Core Binds Specifically to Myeloid Cell Leukemia 1 (MCL1)” (ACS Med Chem Lett, 2014).

Structures are written as SMILES. The source made the active and inactive calls. The rule behind the calls is not given here.

One may read the IC50 as the concentration at which inhibition is half-maximal. Usually ΔTm stands for the change in melting temperature against a reference sample.

The target of assay [1] is T1, Induced myeloid leukemia cell differentiation protein Mcl-1 (Homo sapiens, UniProt Q07820).
Description: Binding affinity to human MCL1 (173 to 329 aa) using TAMRA-labeled Noxa peptide preincubated for 30 mins by fluorescent polarization assay
The target of assay [2] is T1, Induced myeloid leukemia cell differentiation protein Mcl-1. This is another data set of the same source.
Description: Binding affinity to human MCL1 (173 to 329 aa) at 250 uM by differential scanning calorimetry assay
Assay [3] shares this target. This is another data set of the same source.
Assay [4] has the same target. This is another data set of the same source.
For assay [5] the target is unchanged. Particulars: 25 uM.
Assay [6] has the same target. To be noted: 100 uM.
Assay [7] shares this target. To be noted: 800 uM.

T1 sequence (Q07820 whole entry): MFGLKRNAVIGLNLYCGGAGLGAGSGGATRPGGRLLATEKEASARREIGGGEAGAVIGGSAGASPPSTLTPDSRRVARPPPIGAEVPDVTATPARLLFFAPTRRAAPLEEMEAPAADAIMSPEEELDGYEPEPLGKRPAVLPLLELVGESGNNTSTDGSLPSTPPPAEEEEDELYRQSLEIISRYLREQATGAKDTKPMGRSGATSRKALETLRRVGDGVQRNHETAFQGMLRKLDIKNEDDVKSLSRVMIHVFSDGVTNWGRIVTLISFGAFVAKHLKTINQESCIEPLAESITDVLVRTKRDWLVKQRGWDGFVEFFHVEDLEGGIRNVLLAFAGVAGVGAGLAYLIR

Consider `C[C@@H]1CN([C@@H](C)C(=O)O)C(=O)c2cccc(NS(=O)(=O)c3ccccc3)c2O[C@@H]1CN(C)C(=O)Nc1ccc(C(F)(F)F)cc1`, for which inhibition in assay [1] was half-maximal at 10 µM (IC50). Also, in assay [2], the ΔTm turned out to be 2.8 °C.
For `COc1ccc(NC(=O)N(C)C[C@H]2Oc3c(NS(=O)(=O)c4ccc(F)cc4)cccc3C(=O)N([C@@H](C)C(=O)O)C[C@H]2C)cc1`, the IC50 in assay [1] is > 50 µM. For the same molecule, the ΔTm in assay [2] turned out to be 0.2 °C.
As to `C[C@@H]1CN([C@@H](C)C(=O)O)C(=O)c2cccc(NS(=O)(=O)c3ccccc3F)c2O[C@@H]1CN(C)C(=O)Nc1ccc(C(F)(F)F)cc1`, in assay [1], half-maximal inhibition (IC50) was put at 21.3 µM. For the same molecule, in assay [2], the ΔTm is 1.9 °C.
As for `NS(=O)(=O)c1ccc(F)cc1`, the result in assay [3] and in assay [4] was inactive.
Turning to `C[C@@H]1CN([C@@H](C)C(=O)O)C(=O)c2cccc(NS(=O)(=O)Cc3ccccc3)c2O[C@@H]1CN(C)C(=O)Nc1ccc(C(F)(F)F)cc1`, the IC50 in assay [1] was > 50 µM. In addition, the ΔTm in assay [2] stood at 1.4 °C.
With `C[C@@H]1CN([C@@H](C)C(=O)O)C(=O)c2cccc(NS(=O)(=O)c3ccc(F)cc3)c2O[C@@H]1CN(C)C(=O)Nc1ccccc1C(F)(F)F`, the IC50 in assay [1] was > 50 µM. Moreover, in assay [2], the ΔTm was 0.2 °C.
Take `C[C@@H]1CN([C@@H](C)C(=O)O)C(=O)c2cccc(NS(=O)(=O)c3ccc(F)cc3)c2O[C@@H]1CN(C)C(=O)Nc1ccc2ccccc2c1`: in assay [1], the IC50 is > 25 µM. The ΔTm in assay [2] was 0.8 °C.
In the case of `C[C@@H]1CN([C@@H](C)C(=O)O)C(=O)c2cccc(NS(=O)(=O)CCc3ccccc3)c2O[C@@H]1CN(C)C(=O)Nc1ccc(C(F)(F)F)cc1`, the IC50 in assay [1] is > 50 µM. For the same molecule, the ΔTm in assay [2] came out at 0.4 °C.
For `C[C@@H]1CN([C@@H](C)C(=O)O)C(=O)c2cccc(NS(=O)(=O)c3ccc(F)cc3)c2O[C@@H]1CN(C)C(=O)Nc1cccc(C(F)(F)F)c1`, the IC50 in assay [1] is > 25 µM. In assay [2], the ΔTm was determined as 0.2 °C.
On to `C[C@@H]1CN([C@@H](C)C(=O)O)C(=O)c2cccc(NS(=O)(=O)c3ccc(F)cc3)c2O[C@@H]1CN(C)C(=O)Nc1cccc2ccccc12`, for which the IC50 in assay [1] was > 50 µM. In addition, the ΔTm in assay [2] was -0.1 °C.
Consider `C[C@@H]1CN([C@@H](C)C(=O)O)C(=O)c2cccc(NS(=O)(=O)c3ccc(F)cc3)c2O[C@@H]1CN(C)C(=O)Nc1ccccc1`, for which, in assay [1], the IC50 is > 50 µM. In addition, in assay [2], the ΔTm was 0.2 °C.
For `C[C@@H]1CN([C@@H](C)C(=O)O)C(=O)c2cccc(NS(=O)(=O)c3cccc(F)c3)c2O[C@@H]1CN(C)C(=O)Nc1ccc(C(F)(F)F)cc1` the same measures were 4.1 µM and 3.4 °C.
Consider `C[C@@H]1CN([C@@H](C)CO)C(=O)c2cccc(NS(=O)(=O)c3ccccc3)c2O[C@@H]1CN(C)C(=O)Nc1ccc(C(F)(F)F)cc1`, for which the ΔTm in assay [5] was determined as 0.3 °C.
Turning to `CN(C)C(=O)Nc1ccc(C(F)(F)F)cc1`, the outcome in assay [3] and in assay [4] was inactive.
Regarding `C[C@@H]1CN([C@@H](C)CO)C(=O)c2cccc(NS(=O)(=O)c3ccc(F)cc3)c2O[C@@H]1CN(C)C(=O)Nc1ccc(C(F)(F)F)cc1`, the ΔTm is 0.6 °C in assay [5] and 1.9 °C in assay [6]. Besides, in assay [7], the result was inactive.
